Source: patent US20070142396A1, “Treatment of pain with 1-[3-[4-(3-chlorophenyl)-1-piperazinyl]propyl]-5-methoxy-3,4-dihydro-2(1H)-quinolone or salt thereof” (Vela Pharmaceuticals, Inc., priority 2005, published 2007)

Tested on: rats with L5 spinal nerve ligation (SNL model)
Test: Spinal nerve ligation (L5) neuropathic pain model, mechanical threshold with von Frey filaments (Example 4)
Type: in vivo, rat
Conditions: 100 mg/kg oral
Source text: A total of 18 Sprague-Dawley (CD sub-strain) young adult (weight: 150-175 g) male rats were purchased from Harlan Sprague Dawley Company (Indianapolis, Ind.), Alabama colony. The rats were kept three per cage and had free access to food and water. Animals were kept in a room with a reversed light-dark cycle (light: 8:00 PM-8:00 AM) for 1 week before experimental manipulations. Ten rats were allocated to the present study. Eight rats were allocated to the study of Example 5, below.
The spinal nerve ligation (SNL) model of neuropathic pain was produced in all rats as described by Kim and Chung (Pain, 50, 355-363, 1992). Briefly, under gaseous anesthesia using halothane (3% for induction and 1.5% for maintenance) in oxygen, the left L5 spinal nerve was exposed by removing the paraspinal muscles and the transverse process of the L6 vertebra. The very proximal portion of the L5 spinal nerve was tightly ligated with 6-0 silk suture. The wounds were closed and anesthesia was discontinued. Rats were kept on a heated blanket until they had completely recovered from anesthesia.
OPC-14523 was dispersed in 0.5% tragacanth in distilled water at 20 mg/ml. It was administered as a oral injection in a dose of 100 mg/kg body weight. Gabapentin was prepared at 10 mg/ml in saline and was administered at 50 mg/kg body weight i.p. Gabapentin is a drug that was originally developed as an anticonvulsant but is now widely used as an analgesic for neuropathic pain (Abdi et al., Anesthesia & Analgesia 87:1360-1366 (1998)).
Ten rats were utilized in a Latin-square-design study comparing the activity of OPC-14523 and other compounds against neuropathic pain. Behavioral tests were conducted twice (1 day and 1 hour) before, as well as 1 and 4 days after, the neuropathic surgery. […] The ten rats were randomly divided into five groups of two rats each. […]
This procedure was repeated five times. […] The result was that all ten animals received each of the indicated five compounds in random order and then had mechanical thresholds determined at the indicated times.
Behavioral tests were conducted in a non-blind fashion. The foot withdrawal threshold to mechanical stimuli applied to the paw (mechanical threshold) was measured, as an indicator of mechanical sensitivity of the affected paw. The foot withdrawal threshold was measured using von Frey filaments. […] The mechanical thresholds were measured by using the “up-and-down” method (Chaplan et al., J. Neurosci. Methods 53(1):55-63, 1994), following the procedures described in previous studies (Park et al., Pain 87(2):171-179, 2000; Xie et al., J. Pain 2(5):270-278, 2001; Baik et al., J. Pain 4:212-221, 2003). […]

## COc1cccc2c1CCC(=O)N2CCCN1CCN(c2cccc(Cl)c2)CC1 [OPC-14523, 1-[3-[4-(3-chlorophenyl)-1-piperazinyl]propyl]-5-methoxy-3,4-dihydro-2(1H)-quinolone]
  level of mechanical threshold reached relative to level prior to ligation: comparable to the level observed prior to ligation
0.5-6 hours
  effect on mechanical threshold of the lesioned paw for foot withdrawals: significantly increased
